# Measurements published in article PMC2879651 (Bioanalysis, 2009).
# Like-named read-outs stand apart in the source and are kept apart here.
# What was measured:
# [1] = fatal intoxication after ingestion of Ayahuasca preparation; cited from earlier work
# [2] = type: in vivo, male FVB/N mice; conditions: for Cmax / MRT: male, FVB/N, mouse, ip, 2 mg/kg; for AUC0→t (AUC0→60 min): 0-60 min
# [3] = rats, 1 hour after bufotenine 30 mg/kg s.c.; cited from earlier work
smiles,measurement,setting,value
"COc1ccc2[nH]cc(CCN(C)C)c2c1 [5-MeO-DMT, 5-Methoxy-N,N-dimethyltryptamine, reference compound]",concentration in heart blood of decedent,[1],1880 ng/mL
same,Cmax,[2]; serum,298 ± 29 ng/mL
same,MRT,[2]; serum,17.6 min
same,serum concentration at 60 min relative to Cmax,"[2]; mice, 60 min after 5-MeO-DMT 2 mg/kg i.p.",4.4%
same,AUC0→t (AUC0→90 min),"[2]; mice, serum, after 5-MeO-DMT 2 mg/kg i.p., 0-90 min","6,000 ± 1,240 µg·min/L"
"CN(C)CCc1c[nH]c2ccc(O)cc12 [Bufotenine, bufotenine]",brain over blood ratio of drug concentration,[3],1/15
same,Cmax,[2]; serum,10.6 ± 2.3 ng/mL
same,MRT,[2]; serum,24.3 min
same,serum concentration at 90 min,"[2]; mice, 90 min after 5-MeO-DMT 2 mg/kg i.p., metabolite",below the LLOQ
same,systemic exposure (AUC) to bufotenine relative to that to 5-MeO-DMT,"[2]; mice, after 5-MeO-DMT 2 mg/kg i.p.",about 1/14
same,Tmax,"[2]; mice, serum, after 5-MeO-DMT 2 mg/kg i.p., bufotenine as metabolite",13.3 ± 5.8 min
same,AUC0→t (AUC0→60 min),"[2]; mice, serum, after 5-MeO-DMT 2 mg/kg i.p., metabolite",388 ± 82 µg·min/L
same,AUC0→t (AUC0→60 min),"[2]; mice, serum, after 5-MeO-DMT 2 mg/kg i.p., metabolite, listed as bufotenine",388 µg·min/L
